Assay results: US8445510B2, “Fused bicyclic kinase inhibitors” (OSI Pharmaceuticals, LLC, priority 2011, dated 2013)

Assays:
MKN45 cells = assay: MKN45 cell proliferation assay (CellTiter-Glo); type: cell-based; details: Homo sapiens, MKN-45, 72 h; MKN45 cell line; 3 days incubation; at least duplicate experiments; read-out: Prolif. IC50
Aurora B = biological target: T1, Aurora B (Homo sapiens, UniProt Q96GD4); assay: Aurora B cell mechanistic assay (HT-29), phospho-Histone H3 (Ser10) ELISA; type: cell-based; details: HT-29 cell line; inhibition of phospho-Histone H3 (Ser10); at least duplicate experiments (italicized if single experiment); read-out: Aurora B mech IC50
T1 construct: HT-29 cells grown in complete growth media
T1 sequence (Q96GD4 whole entry): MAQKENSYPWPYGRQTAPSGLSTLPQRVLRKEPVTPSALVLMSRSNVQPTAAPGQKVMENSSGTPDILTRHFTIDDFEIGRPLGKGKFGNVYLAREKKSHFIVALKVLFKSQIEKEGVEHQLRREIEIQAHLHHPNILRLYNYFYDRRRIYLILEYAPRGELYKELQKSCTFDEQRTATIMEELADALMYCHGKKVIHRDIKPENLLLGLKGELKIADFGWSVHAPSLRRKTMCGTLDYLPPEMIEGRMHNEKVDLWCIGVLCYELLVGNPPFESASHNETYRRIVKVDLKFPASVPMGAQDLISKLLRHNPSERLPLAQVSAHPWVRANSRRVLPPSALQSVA
Procedure, shortened: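 HT-29 cells treated 1 h at 37 °C with serially diluted compound, then 100 nM Calyculin A added for 30 min. Lysates assayed by phospho-Histone H3 (Ser10) ELISA at 450 nm; normalized to DMSO (100%) and a reference Aurora B inhibitor (full inhibition); IC50 by four-parameter fit.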

Compound | IC50 (MKN45 cells) | IC50 (Aurora B)
Cc1c(-c2cnc3[nH]cc([C@H](C)c4c(O)ccc(F)c4Cl)c3c2)cnn1[C@H]1CC[C@H](O)CC1 [Example 102, 3-Chloro-4-fluoro-2-[(1S)-1-{5-[1-(trans-4-hydroxycyclohexyl)-5-methyl-1H-pyrazol-4-yl]-1H-pyrrolo[2,3-b]pyridin-3-yl}ethyl]phenol] | ≤ 50 nM | > 1000 nM
CCOc1ccc(F)c(Cl)c1[C@@H](C)c1c[nH]c2ncc(-c3cnn([C@H]4CC[C@H](O)CC4)c3C)cc12 [Example 103, trans-4-(4-{3-[(1S)-1-(2-Chloro-6-ethoxy-3-fluorophenyl)ethyl]-1H-pyrrolo[2,3-b]pyridin-5-yl}-5-methyl-1H-pyrazol-1-yl)cyclohexanol] | ≤ 50 nM | > 1000 nM
Cc1c(-c2cnc3[nH]cc([C@H](C)c4c(OC(C)C)ccc(F)c4Cl)c3c2)cnn1[C@H]1CC[C@H](O)CC1 [Example 104, trans-4-[4-(3-{(1S)-1-[2-Chloro-3-fluoro-6-(propan-2-yloxy)phenyl]ethyl}-1H-pyrrolo[2,3-b]pyridin-5-yl)-5-methyl-1H-pyrazol-1-yl]cyclohexanol] | ≤ 50 nM | 200 to 1000 nM
Cc1c(-c2cnc3[nH]cc([C@H](C)c4c(OCC(F)(F)F)ccc(F)c4Cl)c3c2)cnn1[C@H]1CC[C@H](O)CC1 [Example 105, trans-4-[4-(3-{(1S)-1-[2-Chloro-3-fluoro-6-(2,2,2-trifluoroethoxy)-phenyl]ethyl}-1H-pyrrolo[2,3-b]pyridin-5-yl)-5-methyl-1H-pyrazol-1-yl]cyclohexanol] | ≤ 50 nM | 50 to 200 nM
COc1cc(OC)c(Cl)c([C@@H](C)c2c[nH]c3ncc(-c4cnn([C@H]5CC[C@H](O)CC5)c4C)cc23)c1Cl [Example 106, trans-4-(4-{3-[(1S)-1-(2,6-Dichloro-3,5-dimethoxyphenyl)ethyl]-1H-pyrrolo[2,3-b]pyridin-5-yl}-5-methyl-1H-pyrazol-1-yl)cyclohexanol] | ≤ 50 nM | > 1000 nM
[2H]C([2H])([2H])Oc1ccc(F)c(Cl)c1[C@@H](C)c1c[nH]c2ncc(-c3cnn([C@H]4CC[C@H](O)CC4)c3C)cc12 [Example 107, trans-4-(4-{3-[(1S)-1-{2-Chloro-3-fluoro-6-[(^2H3)methyloxy]phenyl}ethyl]-1H-pyrrolo[2,3-b]pyridin-5-yl}-5-methyl-1H-pyrazol-1-yl)cyclohexanol] | ≤ 50 nM | > 1000 nM
Cc1c(-c2cnc3[nH]cc(C(C#N)c4c(Cl)ccc(F)c4Cl)c3c2)cnn1[C@H]1CC[C@H](O)CC1 (stereo partly drawn) [Example 108, (2,6-Dichloro-3-fluorophenyl){5-[1-(trans-4-hydroxycyclohexyl)-5-methyl-1H-pyrazol-4-yl]-1H-pyrrolo[2,3-b]pyridin-3-yl}acetonitrile] | 50 to 200 nM | > 1000 nM
[2H][C@@](C)(c1c(OC)ccc(F)c1Cl)c1c[nH]c2ncc(-c3cnn([C@H]4CC[C@H](O)CC4)c3C)cc12 [Example 110, trans-4-(4-{3-[(1S)-1-(2-Chloro-3-fluoro-6-methoxyphenyl)(1-^2H)ethyl]-1H-pyrrolo[2,3-b]pyridin-5-yl}-5-methyl-1H-pyrazol-1-yl)cyclohexanol] | ≤ 50 nM | > 1000 nM
[2H]C([2H])([2H])[C@H](c1c(OC)ccc(F)c1Cl)c1c[nH]c2ncc(-c3cnn([C@H]4CC[C@H](O)CC4)c3C)cc12 [Example 111, trans-4-(4-{3-[(1S)-1-(2-Chloro-3-fluoro-6-methoxyphenyl)(2,2,2-^2H3)ethyl]-1H-pyrrolo[2,3-b]pyridin-5-yl}-5-methyl-1H-pyrazol-1-yl)cyclohexanol] | ≤ 50 nM | > 1000 nM
